Format in all cases: cell-based
The test system of one experiment is p15 protein. Briefly: Evaluation of p15 induction activity (Western blotting). The conditions noted are these: test substance 0.1 μM, 24 hrs, ACHN cells or HT-29 cells, compared to DMSO, n=2. The method, then:
ACHN cells or HT-29 cells were cultured in a 6 well plate at 2.5×10^5 cells/1.8 mL/well for 24 hrs, then a test substance (0.1 μM) dissolved in DMSO was added. After 24 hrs, cells were detached using trypsin-EDTA (ethylene diamine tetraacetic acid) and solubilized with NuPAGE LDS sample buffer (Invitrogen). Using an RC DC protein assay kit (BIO-RAD), the protein concentration of the sample was quantitated, and a sample in an amount corresponding to 10 μg of BSA (bovine serum albumin) was analyzed by Western blotting using an anti-p15 antibody. The density of the band stained with the anti-p15 antibody was measured by a densitometer to quantify the amount of p15 protein. As a control, DMSO was used and the test was performed with n=2 and the average protein amount was determined.

Experiment [1] has as its system colorectal cancer cell line HT-29 cells. The experiment in a line: Growth inhibitory effect against cancer cell lines (3H-thymidine uptake), HT-29. To be noted: Homo sapiens, HT-29, inhibition of 3H-thymidine uptake; test substance 18 hrs, then 3H-thymidine 6 hrs; triplicate. The method, then:
(§1) Renal cancer cell line ACHN cell or colorectal cancer cell line HT-29 cells were cultured in a 96 well plate at 1.0×10^4 cells/90 μL/well for 24 hrs, then a test substance dissolved in DMSO (dimethyl sulfoxide) was added. After 18 hrs, ^3H-thymidine (0.25 μCi/well) was added and the cells were cultured for 6 hrs. Using a cell harvester, the cells were recovered on a UniFilter-96 GF/B glass filter and the ^3H radioactivity uptaken by the cells was measured by TopCount (Packard). As a control, DMSO was used and the activity of the test substance was expressed in the concentration (IC50) necessary for inhibiting ^3H radioactivity uptaken by the cell to 50% of that of the control group. The measurements were made in triplicate.

Experiment [2] has as its system Renal cancer cell line ACHN cell. The experiment in a line: Growth inhibitory effect against cancer cell lines (3H-thymidine uptake), ACHN. To be noted: Homo sapiens, ACHN. The protocol: as §1

pIC50: −log10 of the molar value.

As a reminder, the fold induction is the signal under treatment as a multiple of the control signal. A higher fold induction goes with a large rise in signal. On to `Cn1c(=O)c2c(Nc3ccc(Cl)cc3)cc(=O)n(C)c2n(-c2ccccc2)c1=O` [Example 1-35], for which the fold induction at 0.1 µM in the experiment with p15 protein is at least 1.5. The same measure, in the same setting: as for `Cn1c(=O)cc(NCC(C)(C)C)c2c(=O)n(-c3ccccc3)c(=O)n(-c3ccccc3)c21` [Example 1-36], the figure is at least 1.5; as for `Cn1c(=O)cc(Nc2ccc(C(=O)O)cc2)c2c(=O)n(-c3ccccc3)c(=O)n(-c3ccccc3)c21` [Example 1-37], at least 1.5. On the same count and under the same terms, next, `CCCC(CCC)c1ccc(Nc2cc(=O)n(C)c3c2c(=O)n(-c2ccccc2)c(=O)n3-c2ccccc2)cc1` [Example 1-40]: at least 1.5.

Regarding `Cn1c(=O)cc(Nc2ccc(N)cc2)c2c(=O)n(-c3ccccc3)c(=O)n(-c3ccccc3)c21` [Example 1-46], in the experiment on p15 protein, the fold induction at 0.1 µM is at least 1.5. On the same count and under the same terms, as for `Cc1cc(Cl)ccc1Nc1cc(=O)n(C)c2c1c(=O)n(-c1ccccc1)c(=O)n2-c1ccccc1` [Example 1-53], the figure is at least 1.5; as for `CCNc1ccc(Nc2cc(=O)n(C)c3c2c(=O)n(-c2ccccc2)c(=O)n3-c2ccccc2)cc1` [Example 1-65], at least 1.5.

Molecule `Cn1c(=O)cc(Nc2ccc(Cl)cc2)c2c(=O)n(-c3ccc(F)cc3)c(=O)n(-c3ccc(F)cc3)c21` [Example 1-79] registered a fold induction at 0.1 µM in the experiment with p15 protein of at least 1.5.

The molecule `Cn1c(=O)cc(Nc2ccc(Cl)cc2)c2c(=O)n(C3CCCC3)c(=O)n(-c3ccccc3)c21` [Example 1-80] yielded a fold induction at 0.1 µM in the experiment with p15 protein of at least 1.5. The same measure, in the same setting: next, `CC(C)n1c(=O)c2c(Nc3ccc(Cl)cc3)cc(=O)n(C)c2n(-c2ccccc2)c1=O` [Example 1-81]: at least 1.5. Broadly, the pIC50 is −log10 of the IC50, conventionally taken in molar units. `CCn1c(=O)c2c(Nc3ccc(Br)cc3)cc(=O)n(C)c2n(-c2ccccc2)c1=O` [Example 1-96] gave a negative-log IC50 (pIC50) in experiment [1] of 6.00 to 7.00. In the experiment on p15 protein, this molecule registered a fold induction at 0.1 µM of at least 1.5.

With `Cn1c(=O)cc(Nc2ccc(Br)cc2)c2c(=O)n(C3CCC3)c(=O)n(-c3ccccc3)c21` [Example 1-107], in the experiment on p15 protein, the fold induction at 0.1 µM is at least 1.5.

`Cc1ccccc1-n1c(=O)n(CC(F)(F)F)c(=O)c2c(Nc3ccc(Br)cc3)cc(=O)n(C)c21` [Example 1-108] returned a fold induction at 0.1 µM with p15 protein of at least 1.5. The same measure, in the same setting: as for `CCn1c(=O)c2c(Nc3ccc(Cl)cc3)cc(=O)n(C)c2n(-c2ccccc2C)c1=O` [Example 1-109], the figure is at least 1.5. Still for that read-out and setting: next, `CCn1c(=O)c2c(Nc3ccc(N(C)C)cc3)cc(=O)n(C)c2n(-c2ccccc2C)c1=O` [Example 1-110]: at least 1.5. Turning to `CCn1c(=O)c2c(Nc3ccc(Br)cc3)cc(=O)n(C)c2n(-c2ccccc2C)c1=O` [Example 1-111], in experiment [1], the negative logarithm of the IC50 (pIC50) was 6.00 to 7.00. The fold induction at 0.1 µM in the experiment on p15 protein was at least 1.5. In the same order, the values of `CCn1c(=O)c2c(Nc3ccc(Br)cc3)cc(=O)n(C)c2n(-c2ccccc2F)c1=O` [Example 1-116] are 6.00 to 7.00 and at least 1.5. Taken in the same sequence, the figures for `CCn1c(=O)c2c(Nc3ccc(N(C)C)cc3)cc(=O)n(C)c2n(-c2ccccc2F)c1=O` [Example 1-117] were 6.00 to 7.00 and at least 1.5. Taken in the same sequence, the figures for `Cc1ccc(-n2c(=O)n(C3CC3)c(=O)c3c(Nc4ccc(N(C)C)cc4)cc(=O)n(C)c32)cc1` [Example 1-126] were 6.00 to 7.00 and at least 1.5.

The molecule `Cc1cccc(-n2c(=O)n(C3CC3)c(=O)c3c(Nc4ccc(N(C)C)cc4)cc(=O)n(C)c32)c1` [Example 1-127] had a negative logarithm of the IC50 (pIC50) in experiment [1] of 6.00 to 7.00. The molecule also returned a fold induction at 0.1 µM with p15 protein of at least 1.5. Molecule `CCn1c(=O)c2c(Nc3ccc(Br)cc3)cc(=O)n(C)c2n(-c2cccnc2)c1=O` [Example 1-131] registered a fold induction at 0.1 µM with p15 protein of at least 1.5. Molecule `CN(C)c1ccc(Nc2cc(=O)n(C)c3c2c(=O)n(C2CC2)c(=O)n3-c2ccc(F)cc2)cc1` [Example 1-132] had a pIC50 in experiment [1] of 6.00 to 7.00. For the same molecule, the fold induction at 0.1 µM with p15 protein was at least 1.5. Taken in the same sequence, the figures for `CN(C)c1ccc(Nc2cc(=O)n(C)c3c2c(=O)n(C2CC2)c(=O)n3-c2cccc(F)c2)cc1` [Example 1-133] were 6.00 to 7.00 and at least 1.5. In the same order, the values of `CNc1ccc(Nc2cc(=O)n(C)c3c2c(=O)n(C2CC2)c(=O)n3-c2ccccc2)cc1` [Example 1-136] are 6.00 to 7.00 and at least 1.5. With `CCNc1ccc(Nc2cc(=O)n(C)c3c2c(=O)n(C2CC2)c(=O)n3-c2ccccc2)cc1` [Example 1-137], the fold induction at 0.1 µM in the experiment with p15 protein was at least 1.5.

Consider `Cn1ccc2cc(Nc3cc(=O)n(C)c4c3c(=O)n(C3CC3)c(=O)n4-c3ccccc3)ccc21` [Example 1-138], for which the negative logarithm of the IC50 (pIC50) in experiment [1] was 6.00 to 7.00. In the experiment with p15 protein, the fold induction at 0.1 µM was at least 1.5. `CN(C)c1ccc(Nc2cc(=O)n(C)c3c2c(=O)n(C2CC2)c(=O)n3-c2ccccc2)cc1F` [Example 1-143] gave a negative logarithm of the IC50 (pIC50) in experiment [1] of 6.00 to 7.00. Besides, the fold induction at 0.1 µM in the experiment with p15 protein was at least 1.5. Turning to `COc1ccc(Nc2cc(=O)n(C)c3c2c(=O)n(C2CC2)c(=O)n3-c2ccccc2)c(OC)c1` [Example 1-146], in the experiment on p15 protein, the fold induction at 0.1 µM was at least 1.5. For `Cn1c(=O)cc(Nc2ccc(Br)c(F)c2)c2c(=O)n(C3CC3)c(=O)n(-c3ccccc3)c21` [Example 1-151], the pIC50 in experiment [1] is 6.00 to 7.00. The fold induction at 0.1 µM in the experiment on p15 protein was at least 1.5. Taken in the same sequence, the figures for `CC1CC1n1c(=O)c2c(Nc3ccc(Br)cc3)cc(=O)n(C)c2n(-c2ccccc2)c1=O` (centres unmarked) [Example 1-153] were 6.00 to 7.00 and at least 1.5. In the experiment with p15 protein, `COc1ccc(Nc2cc(=O)n(C)c3c2c(=O)n(C2CC2)c(=O)n3-c2ccccc2)c(C)c1` [Example 1-154] came in with a fold induction at 0.1 µM of at least 1.5.

`Cc1cc(Br)ccc1Nc1cc(=O)n(C)c2c1c(=O)n(C1CC1)c(=O)n2-c1ccccc1` [Example 1-156]: the pIC50 in experiment [1] was 6.00 to 7.00. The same molecule came in with a fold induction at 0.1 µM in the experiment on p15 protein of at least 1.5. The molecule `Cc1cc(Nc2cc(=O)n(C)c3c2c(=O)n(C2CC2)c(=O)n3-c2ccccc2)ccc1Br` [Example 1-157] came in with a fold induction at 0.1 µM in the experiment with p15 protein of at least 1.5.

In turn, `Cn1c(=O)cc(Nc2ccc(F)cc2F)c2c(=O)n(C3CC3)c(=O)n(-c3ccccc3)c21` [Example 1-162] displayed a fold induction at 0.1 µM in the experiment on p15 protein of at least 1.5. Take `Cn1c(=O)cc(Nc2ccc(Cl)cc2Cl)c2c(=O)n(C3CC3)c(=O)n(-c3ccccc3)c21` [Example 1-163]: in experiment [1], the pIC50 is 6.00 to 7.00. Further, the fold induction at 0.1 µM with p15 protein is at least 1.5. Taken in the same sequence, the figures for `Cn1c(=O)cc(Nc2ccc3[nH]ccc3c2)c2c(=O)n(C3CC3)c(=O)n(-c3ccccc3)c21` [Example 1-165] were 6.00 to 7.00 and at least 1.5. In the same order, the values of `COc1ccccc1-n1c(=O)n(C2CC2)c(=O)c2c(Nc3ccc(Br)cc3F)cc(=O)n(C)c21` [Example 1-166] are 7.00 to 8.00 and at least 1.5. As for `CCn1ccc2cc(Nc3cc(=O)n(C)c4c3c(=O)n(C3CC3)c(=O)n4-c3ccccc3)ccc21` [Example 1-167], the fold induction at 0.1 µM in the experiment on p15 protein is at least 1.5. The molecule `Cc1ccc(Nc2cc(=O)n(C)c3c2c(=O)n(C2CC2)c(=O)n3-c2ccccc2)c(F)c1` [Example 1-168] showed a negative logarithm of the IC50 (pIC50) in experiment [1] of 7.00 to 8.00. This molecule also came in with a fold induction at 0.1 µM with p15 protein of at least 1.5. For `Cn1c(=O)cc(Nc2ccc(O)cc2)c2c(=O)n(C3CC3)c(=O)n(-c3ccccc3)c21` [Example 1-172], in the experiment with p15 protein, the fold induction at 0.1 µM is at least 1.5.

`Cn1c(=O)cc(Nc2ccccc2F)c2c(=O)n(C3CC3)c(=O)n(-c3ccccc3)c21` [Example 1-173]: the fold induction at 0.1 µM in the experiment on p15 protein was at least 1.5. As for `COc1ccc(-n2c(=O)n(C3CC3)c(=O)c3c(Nc4ccc(Br)cc4)cc(=O)n(C)c32)cc1` [Example 1-183], in experiment [1], the pIC50 was 6.00 to 7.00. The molecule also came in with a fold induction at 0.1 µM with p15 protein of at least 1.5. Regarding `Cn1c(=O)cc(Nc2ccc(Br)cc2F)c2c(=O)n(C3CC3)c(=O)n(-c3cccc(OCCN4CCOCC4)c3)c21` [Example 1-232], the pIC50 in experiment [2] is 6.00 to 7.00; in experiment [1], 7.00 to 8.00. Consider `Cn1c(=O)cc(Nc2ccc(Br)cc2F)c2c(=O)n(C3CC3)c(=O)n(-c3cccc(NS(=O)(=O)CC(F)(F)F)c3)c21` [Example 1-267], for which the negative logarithm of the IC50 (pIC50) in experiment [2] was 6.00 to 7.00; in experiment [1] it was 7.00 to 8.00. With `Cn1c(=O)cc(Nc2ccc(Br)cc2F)c2c(=O)n(C3CC3)c(=O)n(-c3cccc(C(N)=O)c3)c21` [Example 1-270], the pIC50 was 6.00 to 7.00 in experiment [2] and 7.00 to 8.00 in experiment [1]. Molecule `CNS(=O)(=O)c1cccc(-n2c(=O)n(C3CC3)c(=O)c3c(Nc4ccc(Br)cc4F)cc(=O)n(C)c32)c1` [Example 1-294] had a negative-log IC50 (pIC50) in experiment [2] of 7.00 to 8.00. The molecule `Cn1c(=O)cc(Nc2ccc(Br)cc2F)c2c(=O)n(C3CC3)c(=O)n(-c3cccc(NS(=O)(=O)CCN4CCOCC4)c3)c21` [Example 1-339] gave a negative-log IC50 (pIC50) in experiment [2] of 6.00 to 7.00.

Consider `CCc1ccc(Nc2c3c(=O)n(C4CC4)c(=O)n(-c4cccc(NS(C)(=O)=O)c4)c3c(C)c(=O)n2CC)c(F)c1` [Example 4-39], for which the pIC50 in experiment [2] was 6.00 to 7.00. With `CCc1ccc(Nc2c3c(=O)n(C4CC4)c(=O)n(-c4cccc(NC(C)=O)c4)c3c(C)c(=O)n2CC)c(F)c1` [Example 4-47], in experiment [2], the pIC50 is 6.00 to 7.00.
